Test results from patent publication US10329303B2, “Heterocyclic inhibitors of monocarboxylate transporter” (THE SCRIPPS RESEARCH INSTITUTE, priority 2015, dated 2019).

Each compound was assayed on Raji (Burkitt's) lymphoma cells (assay: MTT assay for 4-day viability of Raji (Burkitt's) lymphoma cells). Conditions: Homo sapiens, 96 h, Raji cells (highly express MCT1), read-out: approximate potency (EC50).
Assay type: cell-based
From the text: Specific Examples 1-52 of compounds of the invention, with estimated EC50 values determined using an MTT assay for 4-day viability of Raji (Burkitt's) lymphoma cells, a cell line known to highly express MCT1 and to be sensitive to small molecule MCT inhibitors,^4 are shown in Table 2. Assay protocols follow those described in the literature.^4 Other assays that are not described here but that are standard in the field, such as an assay for competitive inhibition of transport of radiolabeled lactic acid, an MCT substrate, may also be useful in establishing mechanism of action of these compounds.
Compound `Cc1n[nH]c(C)c1Cc1sc2c(c1-c1cccc(C(C)O)c1)c(=O)n(C)c(=O)n2CC(C)C` (stereo not shown) [Example 13, 6-((3,5-dimethyl-1H-pyrazol-4-yl)methyl)-5-(3-(1-hydroxyethyl)phenyl)-1-isobutyl-3-methylthieno[2,3-d]pyrimidine-2,4(1H,3H)-dione] has an EC50 of 50 nM.
Compound `CC(C)Cc1nn(C)c(=O)c2c(-c3cc(CO)ccc3F)n(Cc3cccc4ccccc34)cc12` [Example 28, 7-(2-fluoro-5-(hydroxymethyl)phenyl)-4-isobutyl-2-methyl-6-(naphthalen-1-ylmethyl)-2,6-dihydro-1H-pyrrolo[3,4-d]pyridazin-1-one] has an EC50 of 40 nM.
Compound `Cc1n[nH]c(C)c1Cc1sc2c(c1-c1cc(CO)c(F)cc1F)c(=O)n(C)c(=O)n2CC(C)C` [Example 6, 5-(2,4-difluoro-5-(hydroxymethyl)phenyl)-6-((3,5-dimethyl-1H-pyrazol-4-yl)methyl)-1-isobutyl-3-methylthieno[2,3-d]pyrimidine-2,4(1H,3H)-dione] has an EC50 of at most 20 nM.
In the case of `Cc1n[nH]c(C)c1Cc1sc2c(c1-c1cnc(F)c(CO)c1)c(=O)n(C)c(=O)n2CC(C)C` [Example 4, 6-((3,5-dimethyl-1H-pyrazol-4-yl)methyl)-5-(6-fluoro-5-(hydroxymethyl)pyridin-3-yl)-1-isobutyl-3-methylthieno[2,3-d]pyrimidine-2,4(1H,3H)-dione], the EC50 is reported as 200 nM.
With `CC(C)Cc1nn(C)c(=O)c2c(-c3cc(C(C)O)ccc3F)n(Cc3cccc4ccccc34)cc12` (stereo not shown) [Example 35, 7-(2-fluoro-5-(1-hydroxyethyl)phenyl)-4-isobutyl-2-methyl-6-(naphthalen-1-ylmethyl)-2,6-dihydro-1H-pyrrolo[3,4-d]pyridazin-1-one] the EC50 was 80 nM.
In the case of `CC(C)Cc1nn(C)c(=O)c2c(-c3cccc(CO)c3)n(CCOc3ccccc3Cl)cc12` [Example 48, 6-(2-(2-chlorophenoxy)ethyl)-7-(3-(hydroxymethyl)phenyl)-4-isobutyl-2-methyl-2,6-dihydro-1H-pyrrolo[3,4-d]pyridazin-1-one], the EC50 is reported as 1000 to 10000 nM.
With `CC(C)Cc1nn(C)c(=O)c2c(-c3ccc(C(O)C(F)(F)F)s3)n(Cc3cccc4ccccc34)cc12` (stereo not shown) [Example 39, 4-isobutyl-2-methyl-6-(naphthalen-1-ylmethyl)-7-(5-(2,2,2-trifluoro-1-hydroxyethyl)thiophen-2-yl)-2,6-dihydro-1H-pyrrolo[3,4-d]pyridazin-1-one] the EC50 was 90 nM.
Work on `CC(C)Cc1nn(C)c(=O)c2c(-c3cncc(CO)c3)n(Cc3cccc4ccccc34)cc12` [Example 32, 7-(5-(hydroxymethyl)pyridin-3-yl)-4-isobutyl-2-methyl-6-(naphthalen-1-ylmethyl)-2,6-dihydro-1H-pyrrolo[3,4-d]pyridazin-1-one] yielded an EC50 of 900 nM.
For `CC(C)Cc1nn(C)c(=O)c2c(-c3csc(C(C)O)c3)n(Cc3cccc4ccccc34)cc12` (stereo not shown) [Example 33, 7-(5-(1-hydroxyethyl)thiophen-3-yl)-4-isobutyl-2-methyl-6-(naphthalen-1-ylmethyl)-2,6-dihydro-1H-pyrrolo[3,4-d]pyridazin-1-one], the EC50 was 70 nM.
`Cc1n[nH]c(C)c1Cc1sc2c(c1-c1cc(F)cc(CO)c1)c(=O)n(C)c(=O)n2CC(C)C` [Example 11, 6-((3,5-dimethyl-1H-pyrazol-4-yl)methyl)-5-(3-fluoro-5-(hydroxymethyl)phenyl)-1-isobutyl-3-methylthieno[2,3-d]pyrimidine-2,4(1H,3H)-dione] gave an EC50 of 25 nM.
Work on `Cc1n[nH]c(C)c1Cc1sc2c(c1-c1ccc(F)c(CO)c1F)c(=O)n(C)c(=O)n2CC(C)C` [Example 7, 5-(2,4-difluoro-3-(hydroxymethyl)phenyl)-6-((3,5-dimethyl-1H-pyrazol-4-yl)methyl)-1-isobutyl-3-methylthieno[2,3-d]pyrimidine-2,4(1H,3H)-dione] yielded an EC50 of at most 20 nM.
`Cc1n[nH]c(C)c1Cc1sc2c(c1-c1cncc(C(O)C(F)(F)F)c1)c(=O)n(C)c(=O)n2CC(C)C` (stereo not shown) [Example 8, 6-((3,5-dimethyl-1H-pyrazol-4-yl)methyl)-1-isobutyl-3-methyl-5-(5-(2,2,2-trifluoro-1-hydroxyethyl)pyridin-3-yl)thieno[2,3-d]pyrimidine-2,4(1H,3H)-dione] gave an EC50 of 34 nM.
`Cc1n[nH]c(C)c1Cc1sc2c(c1-c1cncc(CO)c1)c(=O)n(C)c(=O)n2CC(C)C` [Example 12, 6-((3,5-dimethyl-1H-pyrazol-4-yl)methyl)-5-(5-(hydroxymethyl)pyridin-3-yl)-1-isobutyl-3-methylthieno[2,3-d]pyrimidine-2,4(1H,3H)-dione] gave an EC50 of 75 nM.
In the case of `CC(C)Cc1nn(C)c(=O)c2c(-c3cccc(CO)c3)n(Cc3cccc4ccccc34)cc12` [Example 31, 7-(3-(hydroxymethyl)phenyl)-4-isobutyl-2-methyl-6-(naphthalen-1-ylmethyl)-2,6-dihydro-1H-pyrrolo[3,4-d]pyridazin-1-one], the EC50 is reported as 100 nM.
Compound `CC(C)Cc1nn(C)c(=O)c2c(-c3cccc(C(C)O)c3)n(Cc3cccc4ccccc34)cc12` (stereo not shown) [Example 36, 7-(3-(1-hydroxyethyl)phenyl)-4-isobutyl-2-methyl-6-(naphthalen-1-ylmethyl)-2,6-dihydro-1H-pyrrolo[3,4-d]pyridazin-1-one] has an EC50 of 100 nM.
`CC(C)Cc1nn(C)c(=O)c2c(-c3cccc(CO)c3)n(Cc3cc(Cl)nc4ccccc34)cc12` [Example 46, 6-((2-chloroquinolin-4-yl)methyl)-7-(3-(hydroxymethyl)phenyl)-4-isobutyl-2-methyl-2,6-dihydro-1H-pyrrolo[3,4-d]pyridazin-1-one] showed an EC50 of 1000 to 10000 nM.
`Cc1cc(CO)c(F)c(-c2c(Cc3c(C)n[nH]c3C)sc3c2c(=O)n(C2CC2)c(=O)n3CC(C)C)c1` [Example 17, 3-cyclopropyl-6-((3,5-dimethyl-1H-pyrazol-4-yl)methyl)-5-(2-fluoro-3-(hydroxymethyl)-5-methylphenyl)-1-isobutylthieno[2,3-d]pyrimidine-2,4(1H,3H)-dione] showed an EC50 of 100 nM.
In the case of `Cc1n[nH]c(C)c1Cc1sc2c(c1-c1c(F)cc(F)c(CO)c1F)c(=O)n(C)c(=O)n2CC(C)C` [Example 3, 6-((3,5-dimethyl-1H-pyrazol-4-yl)methyl)-1-isobutyl-3-methyl-5-(2,4,6-trifluoro-3-(hydroxymethyl)phenyl)thieno[2,3-d]pyrimidine-2,4(1H,3H)-dione], the EC50 is reported as 1000 to 10000 nM.
For `Cc1n[nH]c(C)c1Cn1cc2c(CC(C)C)nn(C)c(=O)c2c1-c1cc(CO)ccc1F` [Example 44, 6-((3,5-dimethyl-1H-pyrazol-4-yl)methyl)-7-(2-fluoro-5-(hydroxymethyl)phenyl)-4-isobutyl-2-methyl-2,6-dihydro-1H-pyrrolo[3,4-d]pyridazin-1-one], the EC50 was 200 nM.
